According to patent publication US4588713A, “Selective biologically active 7-oxo-prostacyclin derivatives and pharmaceutical compositions containing same” (Chinoin Gyogyszer Vegyeszeti Termekek Gyara Rt., priority 1984, dated 1986):
≈ marks a conversion by molar mass, not a printed value. Entries after “also recorded” stand apart in the source; their conditions may differ. Where a name gives a salt, the structure may show the parent alone.

Assays:
[1] = system: human plasma enriched with thrombocytes; assay: Anti-aggregation activity in vitro (Born), ADP-induced aggregation; type: cell-based; details: for relative efficiency H^1 (anti-aggregation): relative to PGI2-Na = 1
Procedure: (§1) The selective biological activity of these compounds may be studied by investigating the antiaggregation and hypotensive activity simultaneously. Anti-aggregation activity was measured in vitro according to Born Nature, 214, 927 (1962) on human plasma enriched with thrombocytes in an aggregation induced by […] ADP, whereas the haemodynamic activity was obtained from the blood pressure reducing activity of the compound administered in an i.v. bolus injection to an anaesthetized cat with an open-chest.

[2] = system: antiaggregation and hypotensive activity; assay: Selectivity: antiaggregation versus hypotensive activity; details: for H^1 /H^2: relative anti-aggregation efficiency / relative hypotensive efficiency
Procedure: as §1

[3] = system: anaesthetized cat with an open-chest; assay: Hypotensive (haemodynamic, blood pressure reducing) activity, i.v. bolus, anaesthetized open-chest cat; type: in vivo; details: for ED50: Felis catus, iv; for relative efficiency H^2 (hypotensive): relative to PGI2-Na = 1
Procedure: as §1

[4] = background; cited from earlier work
[5] = in vitro, human plasma enriched with thrombocytes, 2 μm ADP
[6] = i.v. bolus, anaesthetized open-chest cat

Structure (SMILES)	IC50 [1, 5] [ng/mL]	relative efficiency H^1 (anti-aggregation) [1]	H^1 /H^2 [2]	ED50 [3, 6] [µg/kg]	relative efficiency H^2 (hypotensive) [3]	chemical and biological stability (in words) [4]	anti-aggregation IC50 [1, 5] [ng/mL]	selectivity compared with prostacycline and 7-oxo-PGI2 sodium salt (in words) ([2]; from H^1/H^2, listed as cyclopentyl analog)	hypotensive activity ED50 [3, 6] [µg/kg]
CCCCC[C@H](O)/C=C/[C@@H]1[C@H]2C(=O)/C(=C/CCCC(=O)O)O[C@H]2C[C@H]1O [7-oxo-PGI2 --Na, sodium salt of 7-oxo-PGI2]	15	0.086	2.75	6.5	0.024				
CCCCC[C@H](O)/C=C/[C@@H]1[C@H]2C/C(=C/CCCC(=O)O)O[C@H]2C[C@H]1O [PGI2 --Na]	1 (≈ 2.84 nM)		1	0.16	1				
CCCCC[C@H](O)/C=C/[C@@H]1[C@H]2C/C(=C/CCCC(=O)O)O[C@H]2C[C@H]1O [PGI2, Prostacyclin]						chemical and biological instability			
O=C([O-])CCCC=C1OC2CC(O)C(C=CC(O)C3CCCC3)C2C1=O.[Na+] (stereo not shown) [Sodium salt of 7-oxo-16,17,18,19,20-pentanor-15-cyclopentyl-PGI2]		0.625	83.1		0.0075		1.6	about hundred times more selective than prostacycline; also recorded: considerably more selective than the sodium salt of 7-oxo-PGI2	21.2
